Measurements taken from patent EP1585727B1, “INDOLES USEFUL IN THE TREATMENT OF ANDROGEN-RECEPTOR RELATED DISEASES” (priority 2002, dated 2004).
pEC50: −log10 of the molar value.

Experiments:
[1] = molecular target: T1, human androgen receptor (Homo sapiens, UniProt P10275); test: cell-based
T1 construct: expressed in transfected cells; host or cells: Chinese hamster ovary (CHO) cells, cell line CHO-AR-pMMTV-LUC 1G12-A5-CA
T1 sequence (P10275 1-920): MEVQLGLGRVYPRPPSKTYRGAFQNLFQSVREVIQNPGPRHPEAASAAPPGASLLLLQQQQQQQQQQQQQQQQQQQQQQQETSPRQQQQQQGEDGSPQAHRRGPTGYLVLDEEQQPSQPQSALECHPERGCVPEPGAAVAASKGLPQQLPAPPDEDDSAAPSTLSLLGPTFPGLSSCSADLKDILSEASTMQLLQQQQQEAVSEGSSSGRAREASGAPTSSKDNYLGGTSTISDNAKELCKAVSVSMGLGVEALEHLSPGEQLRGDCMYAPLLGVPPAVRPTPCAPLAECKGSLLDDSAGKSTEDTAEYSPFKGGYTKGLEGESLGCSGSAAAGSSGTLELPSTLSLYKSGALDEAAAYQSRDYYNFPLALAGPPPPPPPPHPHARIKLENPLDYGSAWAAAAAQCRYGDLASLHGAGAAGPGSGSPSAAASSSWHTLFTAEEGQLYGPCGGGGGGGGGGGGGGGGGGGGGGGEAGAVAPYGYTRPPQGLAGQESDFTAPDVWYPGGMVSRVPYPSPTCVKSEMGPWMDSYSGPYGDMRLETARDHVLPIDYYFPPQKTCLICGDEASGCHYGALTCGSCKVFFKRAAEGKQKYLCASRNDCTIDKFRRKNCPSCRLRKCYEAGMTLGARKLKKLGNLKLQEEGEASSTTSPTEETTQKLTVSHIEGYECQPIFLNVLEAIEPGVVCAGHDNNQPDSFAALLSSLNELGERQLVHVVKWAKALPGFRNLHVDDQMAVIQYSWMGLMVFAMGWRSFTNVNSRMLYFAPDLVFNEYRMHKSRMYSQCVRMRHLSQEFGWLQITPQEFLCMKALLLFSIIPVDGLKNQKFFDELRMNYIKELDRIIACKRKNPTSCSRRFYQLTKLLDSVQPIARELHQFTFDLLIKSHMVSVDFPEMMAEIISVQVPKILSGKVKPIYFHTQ
Method: (§1) Compounds were tested for their Androgen Receptor activity in a transactivation assay and in a binding assay.
(§2) The (anti-)androgenic activity of test compounds (EC50 and intrinsic activity) was determined in an in vitro bioassay of Chinese hamster ovary (CHO) cells stably transfected with the human androgen receptor expression plasmid and a reporter plasmid in which the MMTV-promoter is linked to the luciferase reporter gene. The cell-line CHO-AR-pMMTV-LUC 1G12-AS-CA is described in Schoonen et al. (2000), Journal of Steroid Biochemistry and Molecular Biology 74(4):213-222. The antiandrogenic activity of a test compound was determined by the inhibition of the transactivation via the androgen receptor of the enzyme luciferase in the presence of 1 nM DHT (5 α-dihydrotestosterone, 17β-hydroxy-5α-androstan-3-one). Intrinsic activity of antiandrogenic activity was determined in the presence of the reference antiandrogen 2-Hydroxy-2-methyl-N-(4-nitro-3-trifluoromethyl-phenyl)-propionamide (Hydroxyflutamide), and set at 100%. For androgenic activity, maximal intrinsic activity in the presence of 100 nM DHT was set at 100%. Table 4 Androgen receptor activity

[2] = molecular target: T1, human androgen receptor; test: Androgen receptor transactivation assay, antiandrogenic activity: inhibition of transactivation in the presence of 1 nM DHT (CHO-AR-pMMTV-LUC cells; Table 4); type: cell-based; conditions: for Emax: intrinsic activity relative to reference antiandrogen Hydroxyflutamide (set at 100%); for pEC50: antiandrogenic activity, read-out: ant EC50
Method: as §1, §2

[3] = test system: cytoplasmic human androgen receptor; test: Competitive binding to cytoplasmic human androgen receptor from recombinant CHO cells (relative binding affinity); conditions: relative to DHT; cytosol of CHO-AR-pMMTV-LUC 1G12-A5-CA cells
From the text: Determination of competitive binding to cytoplasmic human androgen receptor from recombinant CHO cells is used to estimate the relative binding affinity (RBA) of a test compound for androgen receptors present in the cytosol prepared of the recombinant CHO cell-line, CHO-AR-pMMTV-LUC 1G12-A5-CA.

[4] = molecular target: T1, human androgen receptor; test: Androgen receptor transactivation assay, androgenic activity in the presence of 0.1 µmol/l onapristone (CHO-AR-pMMTV-LUC cells; Table 5); type: cell-based; conditions: for ago efficacy: maximal intrinsic activity in the presence of 100 nM DHT set at 1.00; for ago potency: potency expressed as percentage of DHT activity
Method: The androgenic activity (EC50, potency, and efficacy) of the compounds in Table 5 was determined in an in vitro bioassay of Chinese hamster ovary (CHO) cells stably transfected with the human androgen receptor expression plasmid and a reporter plasmid in which the MMTV promotor is linked to the luciferase reporter gene. The cell line CHO-AR-pMMTV-LUC 1G12-A5-CA is described in Schoonen et al. (J. Steroid Biochem. Molec. Biol. […]; 74: 213-222). The androgen receptor activity of compounds was determined in the presence of 0.1 µmol/l onapristone. The maximal efficacy in the presence of 100 nmol/l DHT was set as 100%. The potencies are expressed as percentage of DHT activity. Table 5 Androgen receptor activity

[5] = androgenic activity, CHO-AR-pMMTV-LUC cells, read-out: ago EC50
[6] = in the presence of 1 nM DHT, read-out: ant efficacy

Structure (SMILES): COc1ccc2c(Sc3ccccc3C(N)=O)cn(Cc3cc(F)cc(F)c3)c2c1 [Compound 18, 2-[1-(3,5-Difluoro-benzyl)-6-methoxy-1H-indol-3-ylsulfanyl]-benzamide]
- pEC50 [1, 5]: < 5.00
- Emax ([2]; read-out: ant efficacy, in the presence of 1 nM DHT): 20 to 50%

Structure (SMILES): COc1ccc2c(Sc3ccccc3OC)cn(Cc3cc(F)cc(F)c3)c2c1 [Compound 21]
- pEC50 [1, 5]: 7.00 to 8.30
- pEC50 ([2]; in the presence of 1 nM DHT): < 5.00
- Emax [2, 6]: < 20%

Structure (SMILES): O=[N+]([O-])c1ccccc1Sc1cn(Cc2cc(F)cc(F)c2)c2cccc(F)c12 [Compound 51]
- pEC50 [1]: 7.00 to 8.30
- Emax [2, 6]: < 20%

Structure (SMILES): O=[N+]([O-])c1ccccc1Sc1cn(Cc2cc(F)cc(F)c2)c2ccccc12 [Compound 52]
- pEC50 [1]: > 8.30
- Emax [2, 6]: < 20%

Structure (SMILES): O=[N+]([O-])c1ccccc1Sc1cn(Cc2cc(F)cc(F)c2)c2ccc(O)cc12 [Compound 56]
- Emax ([1]; maximal intrinsic activity in the presence of 100 nM DHT set at 1.00, read-out: ago efficacy): < 20%
- pEC50 ([2]; in the presence of 1 nM DHT): < 5.00
- Emax [2, 6]: < 20%

Structure (SMILES): COc1ccc2c(Sc3ccccc3[N+](=O)[O-])cn(Cc3ccccc3)c2c1 [Compound 92]
- Emax [2, 6]: < 20%
- relative binding affinity (RBA) [3]: > 1%

Structure (SMILES): N#Cc1ccc2c(Sc3ccccc3[N+](=O)[O-])cn(Cc3ccncn3)c2c1 [Compound 124, 3-(2-Nitro-phenylsulfanyl)-1-pyrimidin-4-ylmethyl-1H-indole-6-carbonitrile]
- ago efficacy [4]: ++ (≥0.80)
- ago potency [4]: ++ (>5%)

Structure (SMILES): N#Cc1cccc(Cn2cc(Sc3ccccc3[N+](=O)[O-])c3ccc(C#N)cc32)c1 [Compound 125, 1-(3-Cyano-benzyl)-3-(2-nitro-phenylsulfanyl)-1H-indole-6-carbonitrile]
- ago efficacy [4]: ++ (≥0.80)
- ago potency [4]: + (between 1% and 5%)
